From PubChem BioAssay (NCI)
Several values for one entry are separate records, joined by “and”; a condition that tells them apart may be missing. Identical values can stand only once.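 Briefly, cells in 96-well plates were exposed to five compound concentrations for 48 h, and endpoints were estimated by linear interpolation. At the GI50, growth is halved. TGI: concentration producing complete growth inhibition.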

Columns and labels:
Assay in all cases: inhibition of tumour cell growth, NCI panel, 48 h
[1] = tested on: 786-0 renal
[2] = tested on: A549 NSCLC
[3] = tested on: ACHN renal
[4] = tested on: CAKI-1 renal
[5] = tested on: CCRF-CEM leukemia
[6] = tested on: DLD-1 colon
[7] = tested on: DMS 114 small cell lung
[8] = tested on: DMS 273 small cell lung
[9] = tested on: EKVX NSCLC
[10] = tested on: HCC-2998 colon
[11] = tested on: HCT-15 colon
[12] = tested on: HL-60(TB) leukemia
[13] = tested on: HOP-62 NSCLC
[14] = tested on: HOP-92 NSCLC
[15] = tested on: HT29 colon
[16] = tested on: IGROV1 ovarian
[17] = tested on: K-562 leukemia
[18] = tested on: KM12 colon
[19] = tested on: KM20L2 colon
[20] = tested on: LOX IMVI melanoma
[21] = tested on: LXFL 529 NSCLC
[22] = tested on: M14 melanoma
[23] = tested on: M19-MEL melanoma
[24] = tested on: MALME-3M melanoma
[25] = tested on: MCF7 breast
[26] = tested on: MOLT-4 leukemia
[27] = tested on: NCI-H23 lung
[28] = tested on: NCI-H460 lung
[29] = tested on: NCI-H522 lung
[30] = tested on: NCI/ADR-RES ovarian
[31] = tested on: OVCAR-3 ovarian
[32] = tested on: OVCAR-4 ovarian
[33] = tested on: OVCAR-5 ovarian
[34] = tested on: OVCAR-8 ovarian
[35] = tested on: RXF 393 renal
[36] = tested on: RXF-631 renal
[37] = tested on: SF-268 CNS
[38] = tested on: SF-295 CNS
[39] = tested on: SF-539 CNS
[40] = tested on: SK-MEL-2 melanoma
[41] = tested on: SK-MEL-28 melanoma
[42] = tested on: SK-OV-3 ovarian
[43] = tested on: SN12C renal
[44] = tested on: SN12K1 renal
[45] = tested on: SNB-19 CNS
[46] = tested on: SNB-75 CNS
[47] = tested on: SNB-78 CNS
[48] = tested on: SR leukemia
[49] = tested on: SW-620 colon
[50] = tested on: TK-10 renal
[51] = tested on: U251 CNS
[52] = tested on: UACC-257 melanoma
[53] = tested on: UACC-62 melanoma
[54] = tested on: UO-31 renal
[55] = tested on: XF 498 CNS

For `CC(C)CCCCCCCCCCCCC(=O)NCC(=O)NC1C(C)OC(Nc2ncnc3nc[nH]c23)C(O)C1O` (centres undefined), the GI50 [1] was 1.82 nM, the TGI [1] was 232 nM and the GI50 [2] was 3.24 nM. The TGI [2] was 472 nM and 190 nM, the GI50 [3] was 1.53 nM and the TGI [3] was 6.66 nM. The GI50 [4] was 2.64 nM, the TGI [5] was 223 nM and the TGI [6] was 105 nM. The GI50 [7] was 1.61 nM and 14.8 nM, the TGI [7] was 263 nM and 50.6 nM and the GI50 [8] was 0.0184 nM. The TGI [8] was 0.586 nM, the GI50 [9] was 25.1 nM and the GI50 [10] was 1.21 nM. The GI50 [11] was 573 nM, the TGI [11] was 3840 nM and the GI50 [12] was 1 nM. For the same molecule, the TGI [12] was 4.6 nM and 14.1 nM, the TGI [13] was 8.59 nM and the GI50 [14] was 0.324 nM. For the same molecule, the TGI [14] was 2.19 nM and 4.91 nM, the GI50 [15] was 4.53 nM and the GI50 [16] was 3.19 nM. The TGI [16] was 82 nM and < 44.4 nM, the GI50 [17] was 41.4 nM and the GI50 [18] was 0.442 nM. For the same molecule, the TGI [18] was 208 nM, the GI50 [19] was 0.0575 nM and the TGI [19] was 497 nM. The GI50 [20] was 0.2 nM, the GI50 [21] was 3.36 nM and the TGI [21] was 515 nM. It also gave a GI50 [22] of 2.52 nM, a GI50 [23] of 0.861 nM and a TGI [23] of 14 nM. For the same molecule, the GI50 [24] was 2.54 nM, the TGI [25] was 264 nM and the GI50 [26] was 2.13 nM. The TGI [26] was 7.88 nM and 32.3 nM, the GI50 [27] was 8.75 nM and the TGI [27] was 172 nM. The TGI [28] was 5.77 nM and < 11.1 nM, the GI50 [29] was 1.37 nM and the TGI [29] was 18.2 nM. For the same molecule, the TGI [30] was 71.6 nM, the TGI [31] was 2.4 nM and the GI50 [32] was 14.8 nM. It also gave a TGI [32] of 8.03 nM, a GI50 [33] of 8.14 nM and a GI50 [34] of 1.87 nM. For the same molecule, the TGI [34] was 9.24 nM and 18.2 nM, the GI50 [35] was 1.01 nM and the TGI [35] was 36.9 nM. The TGI [36] was 0.583 nM, the GI50 [37] was 0.965 nM and the TGI [37] was 343 nM. For the same molecule, the GI50 [38] was 17.6 nM, the TGI [38] was < 29.5 nM and the GI50 [39] was 11 nM. For the same molecule, the GI50 [40] was 18.3 nM, the GI50 [41] was 8.69 nM and 48.4 nM and the TGI [41] was 485 nM and 1260 nM. For the same molecule, the GI50 [42] was 0.454 nM and 3.14 nM, the TGI [42] was 3.97 nM and 28.6 nM and the GI50 [43] was 5.48 nM. It also gave a TGI [43] of 683 nM, a TGI [44] of 116 nM and a GI50 [45] of 8.45 nM. The GI50 [46] was 52.2 nM, the TGI [46] was 3.16 nM and the TGI [47] was 7.18 nM and 6.18 nM. For the same molecule, the GI50 [48] was 4.51 nM, the GI50 [49] was 2.18 nM and the TGI [49] was 146 nM and 23.3 nM. For the same molecule, the TGI [50] was 9.6 nM and 80.9 nM, the GI50 [51] was 0.334 nM and the TGI [51] was 38 nM. The TGI [52] was 472 nM, the GI50 [53] was 0.425 nM and 0.705 nM and the TGI [53] was 8.92 nM and 22.6 nM. For the same molecule, the GI50 [54] was 2.01 nM, the GI50 [55] was 0.129 nM and the TGI [55] was 0.925 nM.
